Values joined by “and” are separate entries in the source; they are usually repeats but may differ in a detail not shown here. Identical values can stand only once. Toxic doses and inconclusive results are not listed. Cut-off read from the data, not from the text of the source: active = T/C of 150% or more; inactive = T/C below 125%.
Test system: L1210 leukemia ip in BDF1 mice, survival T/C
Assay: NCI In Vivo Anticancer Drug Screen. Data for tumor model L1210 Leukemia (intraperitoneal) in B6D2F1 (BDF1) mice
Conditions: endpoint: mean survival time, higher = longer survival
Method in brief: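 In this screen, tumor-bearing mice given compound are compared to those given vehicle, and their survival values are reported as a treated-to-control quotient.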

[1] = dose: 100.0 mg/kg/injection, schedule: Q04DX003 (ip), vehicle: saline with Tween-80
[2] = dose: 200.0 mg/kg/injection, schedule: Q04DX003 (ip), vehicle: saline with Tween-80
[3] = dose: 400.0 mg/kg/injection, schedule: Q01DX009 (ip), vehicle: saline with Tween-80
[4] = dose: 400.0 mg/kg/injection, schedule: Q04DX003 (ip), vehicle: saline with Tween-80
[5] = dose: 100.0 mg/kg/injection, schedule: Q04DX003 (ip), vehicle: saline
[6] = dose: 200.0 mg/kg/injection, schedule: Q04DX003 (ip), vehicle: saline
[7] = dose: 400.0 mg/kg/injection, schedule: Q04DX003 (ip), vehicle: saline
[8] = dose: 100.0 mg/kg/injection, schedule: Q01DX009 (ip), vehicle: saline
[9] = dose: 200.0 mg/kg/injection, schedule: Q01DX009 (ip), vehicle: saline
[10] = dose: 400.0 mg/kg/injection, schedule: Q01DX009 (ip), vehicle: saline
[11] = dose: 100.0 mg/kg/injection, schedule: Q01DX009 (ip), vehicle: Klucel (hydroxypropylcellulose) (HPC)
[12] = dose: 200.0 mg/kg/injection, schedule: Q01DX009 (ip), vehicle: Klucel (hydroxypropylcellulose) (HPC)
[13] = dose: 400.0 mg/kg/injection, schedule: Q01DX009 (ip), vehicle: Klucel (hydroxypropylcellulose) (HPC)

Measured: T/C

CC(=O)n1cc(C2CC(=O)OC3=C2C(=O)CCC3)c2ccccc21 (stereo not given)
inactive: dose: 100.0 mg/kg/injection, schedule: Q01DX009 (ip), vehicle: saline with Tween-80 93 % of control | [1] 89 % of control | dose: 200.0 mg/kg/injection, schedule: Q01DX009 (ip), vehicle: saline with Tween-80 93 % of control | [2] 89 % of control | [3] 97 % of control | [4] 91 % of control

COc1ccc(C(=O)OCc2ccccc2CN2CCCCC2C)cc1 (stereo not given)
inactive: dose: 100.0 mg/kg/injection, schedule: Q04DX002 (ip), vehicle: saline 94 % of control | dose: 200.0 mg/kg/injection, schedule: Q04DX002 (ip), vehicle: saline 108 % of control | dose: 400.0 mg/kg/injection, schedule: Q04DX002 (ip), vehicle: saline 86 % of control

O=C(Nc1cccc(C(F)(F)F)c1)c1ccc(C(=O)Nc2cccc(C(F)(F)F)c2)cc1
inactive: [1] 95 % of control | [2] 90 % of control | [3] 96 % of control | [4] 95 % of control

FC(F)(F)C1=NC(=S)C(c2[nH]c(C(F)(F)F)nc2S)=N1
inactive: dose: 25.0 mg/kg/injection, schedule: Q01DX009 (ip), vehicle: water 91 % of control | dose: 50.0 mg/kg/injection, schedule: Q01DX009 (ip), vehicle: water 96 % of control | dose: 100.0 mg/kg/injection, schedule: Q01DX009 (ip), vehicle: water 96 % of control | dose: 200.0 mg/kg/injection, schedule: Q01DX009 (ip), vehicle: water 110 % of control

CSc1ncnc2c1nc[n]2[Sn]([c]1ccccc1)([c]1ccccc1)[c]1ccccc1.CSc1ncnc2nc[nH]c12
inactive: dose: 5.0 mg/kg/injection, schedule: Q01DX001 (ip), vehicle: other 108 % of control | dose: 10.0 mg/kg/injection, schedule: Q01DX001 (ip), vehicle: other 104 % of control | dose: 20.0 mg/kg/injection, schedule: Q01DX001 (ip), vehicle: other 111 % of control

O=[N+]([O-])C(CO)(CO)CO
inactive: [5] 104 % of control | [6] 101 % of control | [7] 101 % of control

Cc1ccccc1N=Cc1cc(Cl)ccc1O
inactive: dose: 100.0 mg/kg/injection, schedule: Q01DX001 (ip), vehicle: Klucel (hydroxypropylcellulose) (HPC) 97 % of control | dose: 100.0 mg/kg/injection, schedule: Q04DX003 (ip), vehicle: Klucel (hydroxypropylcellulose) (HPC) 88 % of control | dose: 200.0 mg/kg/injection, schedule: Q01DX001 (ip), vehicle: Klucel (hydroxypropylcellulose) (HPC) 95 % of control | dose: 200.0 mg/kg/injection, schedule: Q04DX003 (ip), vehicle: Klucel (hydroxypropylcellulose) (HPC) 97 % of control | dose: 400.0 mg/kg/injection, schedule: Q01DX001 (ip), vehicle: Klucel (hydroxypropylcellulose) (HPC) 93 % of control | dose: 400.0 mg/kg/injection, schedule: Q04DX003 (ip), vehicle: Klucel (hydroxypropylcellulose) (HPC) 101 % of control

O=C1c2ccccc2C2NCCCN12 (stereo not given)
inactive: [8] 102 % of control | [9] 100 % of control | [10] 96 % of control

CC(=O)/C=C(\C)NCC(C)N/C(C)=C/C(C)=O (stereo not given)
inactive: dose: 100.0 mg/kg/injection, schedule: Q01DX001 (ip), vehicle: saline 105 % of control | dose: 200.0 mg/kg/injection, schedule: Q01DX001 (ip), vehicle: saline 96 % of control | dose: 400.0 mg/kg/injection, schedule: Q01DX001 (ip), vehicle: saline 99 % of control

CC(=O)NC1CON=C1OS(=O)(=O)c1ccc(C)cc1 (stereo not given)
inactive: dose: 100.0 mg/kg/injection, schedule: Q01DX001 (ip), vehicle: saline with Tween-80 89 % of control | dose: 200.0 mg/kg/injection, schedule: Q01DX001 (ip), vehicle: saline with Tween-80 89 % of control | dose: 400.0 mg/kg/injection, schedule: Q01DX001 (ip), vehicle: saline with Tween-80 100 % of control

CCCC(C(=O)O)(c1ccccc1)c1ccccc1
inactive: dose: 100.0 mg/kg/injection, schedule: Q04DX002 (ip), vehicle: gum acacia 96 % of control | dose: 200.0 mg/kg/injection, schedule: Q04DX002 (ip), vehicle: gum acacia 104 % of control

CN=C(N/N=C(C)\C=N\NC(=NC)N(C)C)N(C)C
inactive: dose: 15.0 mg/kg/injection, schedule: Q01DX Z (ip), vehicle: saline 90 % of control | dose: 30.0 mg/kg/injection, schedule: Q01DX Z (ip), vehicle: saline 106 % of control | dose: 60.0 mg/kg/injection, schedule: Q01DX Z (ip), vehicle: saline 95 % of control and 98 % of control | dose: 120.0 mg/kg/injection, schedule: Q01DX Z (ip), vehicle: saline 97 % of control and 101 % of control | dose: 120.0 mg/kg/injection, schedule: Q01DX Z (oral), vehicle: saline 96 % of control | dose: 240.0 mg/kg/injection, schedule: Q01DX Z (ip), vehicle: saline 95 % of control | dose: 240.0 mg/kg/injection, schedule: Q01DX Z (oral), vehicle: saline 91 % of control | dose: 960.0 mg/kg/injection, schedule: Q01DX Z (oral), vehicle: saline 94 % of control

N#Cc1nc(-c2ccccc2)c(-c2ccccc2)nc1C#N
inactive: [11] 97 % of control | [12] 98 % of control | [13] 96 % of control

O=C(CI)Nc1cc(C(F)(F)F)ccc1Cl
inactive: dose: 25.0 mg/kg/injection, schedule: Q04DX003 (ip), vehicle: Klucel (hydroxypropylcellulose) (HPC) 102 % of control | dose: 50.0 mg/kg/injection, schedule: Q04DX003 (ip), vehicle: Klucel (hydroxypropylcellulose) (HPC) 94 % of control

CCOC(=O)c1ccc(NC(=O)Nc2cc(Cl)c(OC)cc2OC)cc1
inactive: [11] 98 % of control | [12] 95 % of control | [13] 105 % of control

CC1=NNC(=O)C1Br (stereo not given)
inactive: dose: 100.0 mg/kg/injection, schedule: Q01DX001 (ip), vehicle: carboxymethylcellulose (CMC) 105 % of control | dose: 200.0 mg/kg/injection, schedule: Q01DX001 (ip), vehicle: carboxymethylcellulose (CMC) 102 % of control | dose: 400.0 mg/kg/injection, schedule: Q01DX001 (ip), vehicle: carboxymethylcellulose (CMC) 100 % of control

Nc1ccc(C(=O)Nc2ccc(Nc3ccncc3)cc2)c([N+](=O)[O-])c1
inactive: [8] 97 % of control | [5] 100 % of control | [9] 104 % of control | [6] 96 % of control | [10] 106 % of control | [7] 100 % of control

O=C(Nc1ccccc1Cl)Nc1ccccc1Br
inactive: dose: 100.0 mg/kg/injection, schedule: Q04DX002 (ip), vehicle: saline + alcohol 103 % of control | dose: 200.0 mg/kg/injection, schedule: Q04DX002 (ip), vehicle: saline + alcohol 96 % of control | dose: 400.0 mg/kg/injection, schedule: Q04DX002 (ip), vehicle: saline + alcohol 92 % of control

Nc1nc(N)c2nc(CNCCc3ccccc3)cnc2n1
inactive: dose: 20.0 mg/kg/injection, schedule: Q01DX009 (ip), vehicle: Klucel (hydroxypropylcellulose) (HPC) 100 % of control | dose: 40.0 mg/kg/injection, schedule: Q01DX009 (ip), vehicle: Klucel (hydroxypropylcellulose) (HPC) 102 % of control

CC1(C)C2CCC1(C)C(C(=O)C(F)(F)F)C2=O.CC1(C)C2CCC1(C)C(C(=O)C(F)(F)F)C2=O.CC1(C)C2CCC1(C)C(C(=O)C(F)(F)F)C2=O.[Eu] (stereo not given)
inactive: dose: 50.0 mg/kg/injection, schedule: Q04DX002 (ip), vehicle: saline with Tween-80 105 % of control | dose: 100.0 mg/kg/injection, schedule: Q04DX002 (ip), vehicle: saline with Tween-80 94 % of control | dose: 200.0 mg/kg/injection, schedule: Q04DX002 (ip), vehicle: saline with Tween-80 102 % of control

OCCN1CCN(CCCN2c3ccccc3C=Cc3ccccc32)CC1
inactive: dose: 6.25 mg/kg/injection, schedule: Q01DX009 (ip), vehicle: saline 93 % of control | dose: 12.5 mg/kg/injection, schedule: Q01DX009 (ip), vehicle: saline 93 % of control | dose: 25.0 mg/kg/injection, schedule: Q01DX009 (ip), vehicle: saline 95 % of control | dose: 25.0 mg/kg/injection, schedule: Q04DX003 (ip), vehicle: saline 93 % of control | dose: 50.0 mg/kg/injection, schedule: Q01DX009 (ip), vehicle: saline 102 % of control | dose: 50.0 mg/kg/injection, schedule: Q04DX003 (ip), vehicle: saline 98 % of control | [5] 102 % of control

From PubChem BioAssay AID248 (DTP/NCI, 2004)
